Patent US9492471B2, “Methods of treating a disease or disorder associated with Bruton'S Tyrosine Kinase” (Celgene Avilomics Research, Inc., priority 2013, dated 2016)
Read-outs that look alike come from different tables or passages of the source.

Experiments:
Assay in all cases: HotSpot kinase profiling
Assay type in all cases: biochemical
[1] = biological target: T1, BMX/ETK (Homo sapiens, UniProt P51813)
T1 construct: purchased Reaction Biology Corp
T1 sequence (P51813 1-675): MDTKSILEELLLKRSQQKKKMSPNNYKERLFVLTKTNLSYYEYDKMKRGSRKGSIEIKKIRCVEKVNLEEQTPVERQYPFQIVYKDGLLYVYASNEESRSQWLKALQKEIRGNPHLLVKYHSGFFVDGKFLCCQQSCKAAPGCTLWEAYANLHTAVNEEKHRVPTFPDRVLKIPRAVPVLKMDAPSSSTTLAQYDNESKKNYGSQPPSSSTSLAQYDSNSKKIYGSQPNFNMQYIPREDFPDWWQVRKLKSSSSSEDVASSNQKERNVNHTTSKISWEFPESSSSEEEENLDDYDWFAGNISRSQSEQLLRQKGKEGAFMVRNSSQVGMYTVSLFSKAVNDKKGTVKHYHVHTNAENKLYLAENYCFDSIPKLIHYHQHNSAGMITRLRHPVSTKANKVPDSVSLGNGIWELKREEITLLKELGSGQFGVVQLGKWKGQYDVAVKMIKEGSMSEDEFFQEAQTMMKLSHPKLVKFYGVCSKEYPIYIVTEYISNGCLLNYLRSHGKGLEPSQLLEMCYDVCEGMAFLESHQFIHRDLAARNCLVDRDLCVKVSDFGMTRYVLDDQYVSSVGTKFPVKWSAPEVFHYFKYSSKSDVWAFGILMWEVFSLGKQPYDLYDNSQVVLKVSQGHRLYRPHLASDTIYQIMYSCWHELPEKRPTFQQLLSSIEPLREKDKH
Method in brief: (§1)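 Activity is measured by radiolabel transfer captured on P81 filters after a 2 h room-temperature reaction of kinase, substrate and cofactors. Values are percent inhibition against DMSO.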

[2] = biological target: T2, CK1g1 (Homo sapiens, UniProt Q9HCP0)
T2 construct: purchased Reaction Biology Corp
T2 sequence (Q9HCP0 whole entry): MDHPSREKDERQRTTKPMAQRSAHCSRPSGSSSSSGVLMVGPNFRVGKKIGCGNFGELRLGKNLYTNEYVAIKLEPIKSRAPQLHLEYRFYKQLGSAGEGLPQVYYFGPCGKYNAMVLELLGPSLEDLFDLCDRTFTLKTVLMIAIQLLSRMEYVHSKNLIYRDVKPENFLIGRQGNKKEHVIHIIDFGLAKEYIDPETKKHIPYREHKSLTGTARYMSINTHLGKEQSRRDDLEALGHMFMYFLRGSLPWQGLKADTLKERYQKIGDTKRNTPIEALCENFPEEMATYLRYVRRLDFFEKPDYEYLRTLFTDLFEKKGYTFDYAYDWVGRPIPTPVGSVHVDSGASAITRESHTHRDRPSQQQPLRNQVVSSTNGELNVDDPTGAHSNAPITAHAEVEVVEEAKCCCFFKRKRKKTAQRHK
Method in brief: as §1

[3] = biological target: T3, FMS (Homo sapiens, UniProt P07333)
T3 construct: purchased Reaction Biology Corp
T3 sequence (P07333 20-972): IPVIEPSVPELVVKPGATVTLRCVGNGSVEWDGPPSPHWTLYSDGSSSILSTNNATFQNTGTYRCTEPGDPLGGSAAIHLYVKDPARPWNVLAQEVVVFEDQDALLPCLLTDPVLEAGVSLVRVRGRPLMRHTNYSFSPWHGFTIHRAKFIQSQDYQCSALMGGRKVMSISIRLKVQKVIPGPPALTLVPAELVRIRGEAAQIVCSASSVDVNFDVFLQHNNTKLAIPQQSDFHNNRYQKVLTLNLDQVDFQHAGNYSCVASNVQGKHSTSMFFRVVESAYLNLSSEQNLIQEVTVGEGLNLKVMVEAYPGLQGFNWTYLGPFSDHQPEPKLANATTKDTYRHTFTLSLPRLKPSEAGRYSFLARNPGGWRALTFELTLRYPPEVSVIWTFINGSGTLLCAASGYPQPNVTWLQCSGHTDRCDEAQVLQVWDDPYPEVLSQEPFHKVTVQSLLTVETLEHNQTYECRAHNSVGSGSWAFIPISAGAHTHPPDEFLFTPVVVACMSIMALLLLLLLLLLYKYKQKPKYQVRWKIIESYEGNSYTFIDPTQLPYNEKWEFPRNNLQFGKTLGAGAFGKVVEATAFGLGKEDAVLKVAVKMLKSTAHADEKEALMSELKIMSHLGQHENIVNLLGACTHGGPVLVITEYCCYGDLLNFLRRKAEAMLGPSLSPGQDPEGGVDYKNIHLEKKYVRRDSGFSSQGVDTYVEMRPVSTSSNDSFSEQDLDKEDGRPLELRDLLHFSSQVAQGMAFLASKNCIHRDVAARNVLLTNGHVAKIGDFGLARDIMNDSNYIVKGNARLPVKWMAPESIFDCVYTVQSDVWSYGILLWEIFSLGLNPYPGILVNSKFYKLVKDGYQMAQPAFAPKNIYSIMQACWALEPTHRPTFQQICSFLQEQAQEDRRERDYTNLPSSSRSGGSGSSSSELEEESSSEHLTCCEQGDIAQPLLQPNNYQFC
Method in brief: as §1

[4] = biological target: T4, NEK1 (Homo sapiens, UniProt Q96PY6)
T4 construct: purchased Reaction Biology Corp
T4 sequence (Q96PY6 1-1258): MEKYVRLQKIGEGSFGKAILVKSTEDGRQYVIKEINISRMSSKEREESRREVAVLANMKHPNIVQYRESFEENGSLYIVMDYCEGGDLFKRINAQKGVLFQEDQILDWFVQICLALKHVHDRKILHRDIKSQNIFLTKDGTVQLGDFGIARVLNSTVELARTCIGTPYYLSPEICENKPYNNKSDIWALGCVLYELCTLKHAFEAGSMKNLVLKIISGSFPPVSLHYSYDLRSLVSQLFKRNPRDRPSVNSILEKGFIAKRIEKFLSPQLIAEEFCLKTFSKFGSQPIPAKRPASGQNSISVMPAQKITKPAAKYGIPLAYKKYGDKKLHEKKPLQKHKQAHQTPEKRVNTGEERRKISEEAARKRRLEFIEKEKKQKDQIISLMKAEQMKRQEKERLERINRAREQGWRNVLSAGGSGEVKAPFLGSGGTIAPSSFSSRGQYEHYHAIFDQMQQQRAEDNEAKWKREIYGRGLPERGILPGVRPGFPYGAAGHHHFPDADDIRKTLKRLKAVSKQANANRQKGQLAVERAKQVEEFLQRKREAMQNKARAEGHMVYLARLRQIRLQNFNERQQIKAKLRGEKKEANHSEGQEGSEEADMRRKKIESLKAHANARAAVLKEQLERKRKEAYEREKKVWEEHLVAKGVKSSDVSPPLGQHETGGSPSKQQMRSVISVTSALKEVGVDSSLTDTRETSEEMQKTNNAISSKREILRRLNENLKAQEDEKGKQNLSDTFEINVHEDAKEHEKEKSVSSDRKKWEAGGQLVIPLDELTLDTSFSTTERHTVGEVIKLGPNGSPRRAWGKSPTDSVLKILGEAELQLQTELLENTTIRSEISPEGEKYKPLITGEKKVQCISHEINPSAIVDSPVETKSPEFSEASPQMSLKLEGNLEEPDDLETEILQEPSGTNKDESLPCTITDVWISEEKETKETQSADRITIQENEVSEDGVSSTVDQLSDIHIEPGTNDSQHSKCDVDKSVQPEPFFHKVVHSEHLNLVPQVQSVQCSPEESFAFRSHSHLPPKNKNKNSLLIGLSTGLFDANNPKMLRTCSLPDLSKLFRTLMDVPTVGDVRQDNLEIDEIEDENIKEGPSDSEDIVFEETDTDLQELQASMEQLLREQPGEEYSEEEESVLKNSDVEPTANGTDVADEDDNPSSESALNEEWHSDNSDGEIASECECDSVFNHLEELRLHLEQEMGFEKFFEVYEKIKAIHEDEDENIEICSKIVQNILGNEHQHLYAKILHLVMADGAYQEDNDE
Method in brief: as §1

[5] = biological target: T5, PAK2 (Homo sapiens, UniProt Q13177)
T5 construct: purchased Reaction Biology Corp
T5 sequence (Q13177 whole entry): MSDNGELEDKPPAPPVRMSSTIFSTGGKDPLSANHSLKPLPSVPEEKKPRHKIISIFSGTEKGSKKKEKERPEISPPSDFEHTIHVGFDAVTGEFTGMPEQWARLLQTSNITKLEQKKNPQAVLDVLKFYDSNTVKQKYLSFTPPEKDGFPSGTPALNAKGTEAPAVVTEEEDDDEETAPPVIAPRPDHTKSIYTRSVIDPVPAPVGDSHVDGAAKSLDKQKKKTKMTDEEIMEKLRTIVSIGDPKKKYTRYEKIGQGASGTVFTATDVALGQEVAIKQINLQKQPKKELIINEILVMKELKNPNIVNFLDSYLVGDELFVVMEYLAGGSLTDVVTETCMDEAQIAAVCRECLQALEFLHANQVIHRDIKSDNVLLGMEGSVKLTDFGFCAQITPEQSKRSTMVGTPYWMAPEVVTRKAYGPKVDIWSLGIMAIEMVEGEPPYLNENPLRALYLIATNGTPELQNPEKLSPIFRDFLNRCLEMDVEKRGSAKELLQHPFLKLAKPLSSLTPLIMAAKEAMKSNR
Method in brief: as §1

[6] = biological target: T6, PKCb1 (Homo sapiens, UniProt P05771)
T6 construct: purchased Reaction Biology Corp
T6 sequence (P05771 whole entry): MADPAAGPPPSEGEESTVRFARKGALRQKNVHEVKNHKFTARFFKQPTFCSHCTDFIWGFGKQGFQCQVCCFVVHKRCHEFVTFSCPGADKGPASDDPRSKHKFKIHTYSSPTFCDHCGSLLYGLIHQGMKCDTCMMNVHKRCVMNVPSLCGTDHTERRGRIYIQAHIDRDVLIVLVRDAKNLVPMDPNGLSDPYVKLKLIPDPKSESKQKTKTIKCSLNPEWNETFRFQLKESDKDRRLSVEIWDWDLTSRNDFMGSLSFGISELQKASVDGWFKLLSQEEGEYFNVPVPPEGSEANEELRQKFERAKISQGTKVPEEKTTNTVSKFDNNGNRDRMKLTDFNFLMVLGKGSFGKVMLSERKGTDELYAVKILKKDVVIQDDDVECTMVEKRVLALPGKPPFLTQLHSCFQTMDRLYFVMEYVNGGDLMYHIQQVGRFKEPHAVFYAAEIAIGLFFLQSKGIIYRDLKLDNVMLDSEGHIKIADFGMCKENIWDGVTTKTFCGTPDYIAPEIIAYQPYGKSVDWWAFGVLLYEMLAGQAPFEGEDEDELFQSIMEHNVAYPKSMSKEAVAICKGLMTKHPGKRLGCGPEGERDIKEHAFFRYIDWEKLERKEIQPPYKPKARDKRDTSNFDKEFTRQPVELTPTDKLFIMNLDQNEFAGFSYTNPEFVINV
Method in brief: as §1

[7] = biological target: T7, PKN1/PRK1 (Homo sapiens, UniProt Q16512)
T7 construct: purchased Reaction Biology Corp
T7 sequence (Q16512 whole entry): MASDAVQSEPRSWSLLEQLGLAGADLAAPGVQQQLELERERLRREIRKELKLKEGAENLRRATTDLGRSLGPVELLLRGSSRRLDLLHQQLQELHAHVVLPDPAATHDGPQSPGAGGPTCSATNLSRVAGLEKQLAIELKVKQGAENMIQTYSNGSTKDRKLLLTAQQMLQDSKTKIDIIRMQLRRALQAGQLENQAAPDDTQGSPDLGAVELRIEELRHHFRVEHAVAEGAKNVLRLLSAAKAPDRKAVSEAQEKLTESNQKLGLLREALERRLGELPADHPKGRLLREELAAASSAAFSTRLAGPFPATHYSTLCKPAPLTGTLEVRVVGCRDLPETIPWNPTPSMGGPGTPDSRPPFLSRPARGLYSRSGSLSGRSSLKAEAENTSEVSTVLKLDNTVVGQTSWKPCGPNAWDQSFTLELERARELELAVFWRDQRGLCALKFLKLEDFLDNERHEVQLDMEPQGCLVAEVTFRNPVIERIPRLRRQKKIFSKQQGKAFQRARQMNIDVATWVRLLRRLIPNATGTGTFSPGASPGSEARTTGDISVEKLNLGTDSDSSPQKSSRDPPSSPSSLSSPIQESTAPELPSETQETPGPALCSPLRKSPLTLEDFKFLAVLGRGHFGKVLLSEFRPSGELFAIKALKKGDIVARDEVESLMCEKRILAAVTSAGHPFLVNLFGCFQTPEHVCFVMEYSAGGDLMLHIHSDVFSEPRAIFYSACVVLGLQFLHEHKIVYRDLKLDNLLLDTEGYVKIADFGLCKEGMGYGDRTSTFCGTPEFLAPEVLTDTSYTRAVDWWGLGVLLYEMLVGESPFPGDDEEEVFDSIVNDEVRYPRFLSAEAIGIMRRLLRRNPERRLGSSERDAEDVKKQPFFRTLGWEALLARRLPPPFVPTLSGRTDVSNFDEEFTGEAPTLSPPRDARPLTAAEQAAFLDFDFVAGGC
Method in brief: as §1

[8] = read-out: % Enzyme Activity (relative to DMSO controls) Run 1
[9] = read-out: % Enzyme Activity (relative to DMSO controls) Run 2

C=CC(=O)Nc1cccc(Nc2nc(Nc3ccc(OCCOC)c(F)c3)ncc2F)c1 [Compound 2]
inhibition at 3 µM [1]: 98.9%
remaining activity at 3 µM [1, 8]: 0.93%
remaining activity at 3 µM [1, 9]: 1.23%
inhibition at 3 µM [2]: 10.5%
remaining activity at 3 µM [2, 8]: 88.8%
remaining activity at 3 µM [2, 9]: 90.3%
inhibition at 3 µM [3]: 34.1%
remaining activity at 3 µM [3, 8]: 64.5%
remaining activity at 3 µM [3, 9]: 67.3%
inhibition at 3 µM [4]: 46.6%
remaining activity at 3 µM [4, 8]: 52.7%
remaining activity at 3 µM [4, 9]: 54%
inhibition at 3 µM [5]: 4.8%
remaining activity at 3 µM [5, 8]: 95.5%
remaining activity at 3 µM [5, 9]: 94.9%
inhibition at 3 µM [6]: 27.6%
remaining activity at 3 µM [6, 8]: 72.7%
remaining activity at 3 µM [6, 9]: 72.1%
inhibition at 3 µM [7]: 6.94%
remaining activity at 3 µM [7, 8]: 93.8%
remaining activity at 3 µM [7, 9]: 92.3%
